Experimental data from paper PMC4551797 (PLoS ONE, 2015).
Where two headings read alike, the source gives them in different places.

How the values were obtained:
Tgr5 KO mice = experiment: Three-day study on GLP-1, PYY and bile weight in Tgr5 KO mice; conditions: 100 mg/kg oral BID 3 days, 30 min after last dose
Description: C57BL/6 mice, Tgr5 KO mice, or their wild-type littermate controls were orally dosed with vehicle or compounds twice per day for 3 days, with overnight fasting performed on the evening of day 2. On the morning of day 3, animals were dosed orally with compounds and then euthanized by CO2 asphyxiation at 30 minutes after the fifth dose. Plasma was collected for analysis of GLP-1 (X-36) amide as mentioned above, followed immediately by incision into the abdominal cavity to remove and weigh bile from the gallbladder.

STC-1 cells = experiment: GLP-1 secretion in STC-1 enteroendocrine cells; type: cell-based; conditions: Mus musculus
Description: HEK-293 cells were obtained from ATCC and a clonal HEK-293 line overexpressing mouse TGR5 was prepared. Both were maintained in Dulbecco’s modified Eagle’s medium (DMEM) containing 10% fetal bovine serum (FBS) and penicillin /streptomycin. Mouse STC-1 cells were obtained from ATCC under agreement with the Cold Spring Harbor Laboratories and maintained in DMEM containing 10% FBS and penicillin /streptomycin. NCI-H716 cells were obtained from ATCC and were maintained in RPMI-1640 with 10% FBS. NCI-H716 cells were cultured in 96 well plate coated with Matrigel (BD). After 72 hours, cAMP production stimulated with TGR5 agonists was measured using HTRF cAMP assay kit (CISBIO). The level of cAMP in suspensions of STC-1 cells stimulated with increasing concentrations of TGR5 agonists was also determined. […] The production of GLP-1 was determined using a GLP-1 Assay (7–36) amide kit (Mesoscale Discovery) following the manufacturer’s instructions. […]
Compound 18 is a novel small molecule agonist of TGR5 developed by Eli Lilly and Company (MW = 508.62, Fig 2A). […] In order to determine potency of compound 18 for the mouse and human TGR5 receptor in cells with endogenous levels of receptor, we measured compound 18-stimulated cAMP production and GLP-1 secretion in both mouse (STC-1) and human (NCI-H716) enteroendocrine cell lines, that we have shown to express TGR5 natively (Fig 1). […]

GPR120 = target: T1, GPR120 (Homo sapiens, UniProt Q5NUL3); experiment: Selectivity: enteroendocrine GPCR GPR120
T1 sequence (Q5NUL3 1-361): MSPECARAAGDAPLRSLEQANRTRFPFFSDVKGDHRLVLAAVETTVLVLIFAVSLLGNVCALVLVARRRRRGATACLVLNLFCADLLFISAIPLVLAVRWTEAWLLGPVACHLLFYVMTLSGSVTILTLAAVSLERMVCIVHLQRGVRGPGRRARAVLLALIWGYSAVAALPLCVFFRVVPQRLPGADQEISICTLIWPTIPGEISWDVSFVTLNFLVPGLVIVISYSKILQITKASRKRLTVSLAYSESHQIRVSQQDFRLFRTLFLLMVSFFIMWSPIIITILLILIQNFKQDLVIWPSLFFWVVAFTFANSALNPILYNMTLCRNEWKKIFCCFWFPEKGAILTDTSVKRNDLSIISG

[1] = Plasma compound levels after oral dosing (LC-MS/MS); conditions: C57BL/6, mouse
mouse TGR5 = target: T2, mouse TGR5 (Mus musculus, UniProt Q80SS6); experiment: cAMP production in STC-1 enteroendocrine cells (endogenous TGR5); type: cell-based; set-up: in cells with endogenous levels of receptor; host or cells: STC-1 (mouse enteroendocrine); conditions: for EC50: STC-1 cells
T2 sequence (Q80SS6 1-329): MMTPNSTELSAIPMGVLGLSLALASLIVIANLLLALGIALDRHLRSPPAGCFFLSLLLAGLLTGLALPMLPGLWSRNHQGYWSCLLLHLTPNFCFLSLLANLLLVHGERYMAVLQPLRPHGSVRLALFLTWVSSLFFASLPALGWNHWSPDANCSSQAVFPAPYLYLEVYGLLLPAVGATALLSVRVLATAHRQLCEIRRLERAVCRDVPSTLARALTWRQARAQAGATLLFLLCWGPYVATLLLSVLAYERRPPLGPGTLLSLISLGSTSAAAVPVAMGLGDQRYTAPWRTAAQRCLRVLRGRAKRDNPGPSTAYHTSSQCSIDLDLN
Description: Both were maintained in Dulbecco’s modified Eagle’s medium (DMEM) containing 10% fetal bovine serum (FBS) and penicillin /streptomycin. Mouse STC-1 cells were obtained from ATCC under agreement with the Cold Spring Harbor Laboratories and maintained in DMEM containing 10% FBS and penicillin /streptomycin. […] NCI-H716 cells were cultured in 96 well plate coated with Matrigel (BD). After 72 hours, cAMP production stimulated with TGR5 agonists was measured using HTRF cAMP assay kit (CISBIO). The level of cAMP in suspensions of STC-1 cells stimulated with increasing concentrations of TGR5 agonists was also determined. After 2 day-culturing, GLP-1 secretion in Matrigel-differentiated NCI-H716 or STC-1 cells was induced by increasing concentrations of TGR5 agonists. The production of GLP-1 was determined using a GLP-1 Assay (7–36) amide kit (Mesoscale Discovery) following the manufacturer’s instructions. For both cAMP and GLP-1, the maximal response for each compound was set to 100% in each cell line.

SMILES: CC(=O)N1CCC(C(C)N(C(=O)COc2cccc3sc4nc(C)cn4c23)c2ccc(F)cc2)CC1 (stereo not drawn) [compound 18]
- GLP-1 (Tgr5 KO mice): no detectable increase
- PYY (Tgr5 KO mice): no detectable increase
- bile weight (Tgr5 KO mice): no detectable increase
- EC50 (STC-1 cells; read-out: EC50, GLP-1 secretion): 307 nM
- EC50 (STC-1 cells; unit inferred, x-axis in nM, read-out: EC50 STC-1 (Fig 2D inset, GLP-1 secretion)): 307 nM
- EC50 (GPR120): > 125000 nM
- AUC(0-t) ([1]; 3 mg/kg): 0.049 µM·h
- Cmax ([1]; 3 mg/kg): 59 nM
- AUC(0-t) ([1]; 10 mg/kg): 0.507 µM·h
- Cmax ([1]; 10 mg/kg): 348 nM
- AUC(0-t) ([1]; 30 mg/kg): 1.52 µM·h
- Cmax ([1]; 30 mg/kg): 2510 nM
- AUC(0-t) ([1]; 100 mg/kg): 14.3 µM·h
- Cmax ([1]; 100 mg/kg): 14800 nM
- Tmax ([1]; 100 mg/kg): 15 min
- EC50 (mouse TGR5; read-out: EC50, cAMP production): 580 nM
- EC50 (mouse TGR5; unit inferred, x-axis in nM, read-out: EC50 STC-1 (Fig 2C inset, cAMP)): 580 nM
- potency on the mouse versus the human TGR5 receptor (mouse TGR5; STC-1 versus NCI-H716 cells): more than 5 fold
